Data taken from patent publication US20210317140A1, “Heterocyclic Compounds and Methods of Use” (MEDIVATION TECHNOLOGIES, INC, priority 2013, published 2021).

Key:
PI3Kδ = target: T1, PI3Kδ (Homo sapiens, UniProt O00329); assay: PI3Kδ kinase assay (HTRF, PIP3 detection); assay type: biochemical; conditions: for PI3Kδ @ 0.01 μM (% Inh): 0.01 μM compound; for PI3Kδ @ 0.01 μM (% Inh) / PI3Kδ @ 0.1 μM (% Inh) / PI3Kδ @ 1 μM (% Inh): 10 μM ATP; for PI3Kδ @ 0.1 μM (% Inh): 0.1 μM compound; for IC50: 10 dose IC50, 10 μM ATP; for PI3Kδ @ 1 μM (% Inh): 1 μM compound
T1 construct: purchased Reaction Biology Corporation
Summary of the method: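 PIP3 formation read by loss of energy transfer as it displaces biotin-PIP3 from a Eu anti-GST/GST-PH/streptavidin-APC complex, calibrated against PIP3 standards.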

CD69+B220+ cells = assay: B cell activation assay (IgD-stimulated splenocytes, CD69+B220+ cells by FACS); assay type: cell-based; conditions: mouse splenocytes, IgD 3 μg/mL, 4 h; for CD69 @ 100 nM (% Inh): 100 nM compound
Description: 1 Female mouse approximately 2 months old was euthanized with CO2 and the spleen removed. The tissue was homogenized with a polished glass microscope slide. The cells were collected in 5 mL complete medium (RPMI+10% FBS+pen/strep), placed in a 15 mL falcon tube and centrifuged at 500×g for 5 min. The supernatant was discarded and the pellet was resuspended in 3 mL of ACK lysis buffer (NH4Cl 0.17M, KHCO3 10 mM, EDTA-Na2 0.1 mM, pH 7.2), incubated at 37° C. for 5 min. 2 mL complete medium was added and the mixture centrifuged at 500×g for 5 min. The supernatant was discarded and the pellet resuspended in 1 mL complete medium. The mixture was passed through a […] cell strainer and collect in 50 mL falcon tube. Enough medium was added to have a total of 10 mL. The cells were counted and seeded in 24 or 48-well plate in 1 mL complete medium at 10^6 cells/mL. The plate was placed in a 37° C. incubator for 15 min. The cells were treated for 30 min at 37° C. with 100 nM test compound dissolved in 100% DMSO. 3 μL IgD (Accurate chemical and scientific corp.) was added at a final concentration of 3 μg/mL and the mixture incubated at 37° C. for 4 h. The cells were collected in 1.5 mL eppendorf tubes, centrifuged at 500×g for 5 min and then resuspended in 100 μL of PBS+2% FBS. The following antibodies were added: α-B220 PE (pharmingen #553090), α-CD69 APC (pharmingen #60689), live/dead fixable aqua dead cell stain kit (life technologies #L34957) all at 1:300, and the mixture incubated for 15 min at 4° C. in the dark. To this was added 900 μL of PBS+2% FBS and the mixture centrifuged at 500×g for 5 min. The supernatant was removed and the pellet resuspended in 300 μL of PBS+2% FBS and mixed well. The mixture was transferred to a cytometer tube. The samples were run in the FACS Canto II cytometer and quantified by the number of CD69+B220+ cells as a percentage of the total number of B220+ alive cells.

BTK = target: T2, BTK (Homo sapiens, UniProt Q06187); assay: BTK kinase assay (HotSpot, 33P ATP); assay type: biochemical; conditions: for BTK @ 0.01 μM (% Inh): 0.01 μM compound; for BTK @ 0.01 μM (% Inh) / BTK @ 0.1 μM (% Inh) / BTK @ 1 μM (% Inh): 10 μM ATP; for BTK @ 0.1 μM (% Inh): 0.1 μM compound; for IC50: 10 dose IC50, 10 μM ATP; for BTK @ 1 μM (% Inh): 1 μM compound
T2 construct: purchased Reaction Biology Corporation
Summary of the method: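 In 20 mM Hepes (pH 7.5) with 10 mM MgCl2, 1 mM EGTA, 0.1 mM Na3VO4, 2 mM DTT, 0.02% Brij35, 0.02 mg/mL BSA and 1% DMSO, kinase and substrate were exposed to ten compound doses for 15–20 min.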

T1 sequence (O00329 whole entry): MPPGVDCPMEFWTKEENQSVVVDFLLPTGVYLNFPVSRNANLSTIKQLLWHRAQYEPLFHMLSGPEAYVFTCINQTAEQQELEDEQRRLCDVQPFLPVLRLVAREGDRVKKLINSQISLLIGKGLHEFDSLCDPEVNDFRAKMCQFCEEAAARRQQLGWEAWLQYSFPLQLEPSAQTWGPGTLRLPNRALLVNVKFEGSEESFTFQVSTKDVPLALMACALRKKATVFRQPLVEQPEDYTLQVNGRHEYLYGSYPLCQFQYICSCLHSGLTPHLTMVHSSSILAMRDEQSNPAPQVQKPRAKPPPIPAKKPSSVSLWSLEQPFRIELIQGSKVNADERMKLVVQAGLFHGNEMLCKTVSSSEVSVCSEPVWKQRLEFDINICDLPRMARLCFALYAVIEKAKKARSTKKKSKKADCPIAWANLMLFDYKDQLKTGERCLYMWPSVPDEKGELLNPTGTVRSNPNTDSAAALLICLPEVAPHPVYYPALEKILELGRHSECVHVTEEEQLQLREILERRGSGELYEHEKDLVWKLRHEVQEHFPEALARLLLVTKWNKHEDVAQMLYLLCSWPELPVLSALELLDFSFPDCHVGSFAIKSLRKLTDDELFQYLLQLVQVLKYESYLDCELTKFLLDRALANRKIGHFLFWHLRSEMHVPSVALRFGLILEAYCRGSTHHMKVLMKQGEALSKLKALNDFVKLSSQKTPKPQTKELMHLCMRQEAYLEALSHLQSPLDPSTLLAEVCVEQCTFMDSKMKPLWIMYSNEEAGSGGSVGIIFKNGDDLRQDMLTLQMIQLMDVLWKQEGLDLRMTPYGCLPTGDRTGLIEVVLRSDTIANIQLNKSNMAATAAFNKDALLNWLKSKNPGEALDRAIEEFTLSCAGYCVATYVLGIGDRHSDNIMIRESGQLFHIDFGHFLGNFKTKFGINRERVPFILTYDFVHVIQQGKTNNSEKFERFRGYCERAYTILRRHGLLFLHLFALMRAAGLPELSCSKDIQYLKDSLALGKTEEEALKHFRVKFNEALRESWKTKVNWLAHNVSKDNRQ
T1 sequence (P27986 whole entry partner): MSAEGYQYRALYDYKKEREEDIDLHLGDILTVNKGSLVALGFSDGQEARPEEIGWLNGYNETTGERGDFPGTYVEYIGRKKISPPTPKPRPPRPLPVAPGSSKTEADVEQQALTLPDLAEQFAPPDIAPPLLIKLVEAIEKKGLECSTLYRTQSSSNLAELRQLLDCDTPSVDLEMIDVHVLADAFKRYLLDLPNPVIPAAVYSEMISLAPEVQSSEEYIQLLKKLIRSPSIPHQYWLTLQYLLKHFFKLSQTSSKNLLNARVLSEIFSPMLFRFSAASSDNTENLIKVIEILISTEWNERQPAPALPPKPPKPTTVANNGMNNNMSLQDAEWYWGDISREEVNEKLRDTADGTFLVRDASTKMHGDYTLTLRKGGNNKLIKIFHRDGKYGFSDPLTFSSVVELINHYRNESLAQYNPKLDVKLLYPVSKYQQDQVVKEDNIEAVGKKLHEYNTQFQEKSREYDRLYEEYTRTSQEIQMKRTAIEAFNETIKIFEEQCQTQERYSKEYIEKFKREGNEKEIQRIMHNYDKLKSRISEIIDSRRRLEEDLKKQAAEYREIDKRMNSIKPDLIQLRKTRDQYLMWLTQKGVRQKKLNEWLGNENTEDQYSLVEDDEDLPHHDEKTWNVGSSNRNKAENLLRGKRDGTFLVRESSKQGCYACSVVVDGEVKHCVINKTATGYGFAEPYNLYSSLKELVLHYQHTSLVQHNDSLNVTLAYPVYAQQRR
T2 sequence (Q06187 whole entry): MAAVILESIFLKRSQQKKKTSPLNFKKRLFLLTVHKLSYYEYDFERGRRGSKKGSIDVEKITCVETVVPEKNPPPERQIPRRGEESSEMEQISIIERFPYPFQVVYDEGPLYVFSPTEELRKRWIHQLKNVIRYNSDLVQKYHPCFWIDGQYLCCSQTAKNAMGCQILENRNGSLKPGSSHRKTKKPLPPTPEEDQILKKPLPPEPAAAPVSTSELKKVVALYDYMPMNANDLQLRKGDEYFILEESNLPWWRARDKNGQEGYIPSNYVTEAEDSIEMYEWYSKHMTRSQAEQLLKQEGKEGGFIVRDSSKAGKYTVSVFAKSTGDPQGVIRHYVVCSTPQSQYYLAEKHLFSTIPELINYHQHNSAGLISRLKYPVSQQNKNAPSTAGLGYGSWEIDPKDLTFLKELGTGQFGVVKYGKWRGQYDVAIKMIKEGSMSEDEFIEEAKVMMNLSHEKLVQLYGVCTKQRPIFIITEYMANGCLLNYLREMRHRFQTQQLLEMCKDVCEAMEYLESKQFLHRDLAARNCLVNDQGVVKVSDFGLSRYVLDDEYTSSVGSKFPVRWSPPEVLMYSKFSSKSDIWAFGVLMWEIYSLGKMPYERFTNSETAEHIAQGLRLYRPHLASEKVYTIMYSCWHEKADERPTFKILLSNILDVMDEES

Row | Compound | PI3Kδ @ 0.01 μM (% Inh) (PI3Kδ) | PI3Kδ @ 0.1 μM (% Inh) (PI3Kδ) | BTK @ 0.01 μM (% Inh) (BTK) | BTK @ 0.1 μM (% Inh) (BTK) | IC50 (PI3Kδ) | IC50 (CD69+B220+ cells; Splenocyte) | IC50 (BTK) | PI3Kδ @ 1 μM (% Inh) (PI3Kδ) | BTK @ 1 μM (% Inh) (BTK) | CD69 @ 100 nM (% Inh) (CD69+B220+ cells)
1 | N#Cc1cc(-c2nn(C3Cc4ccccc4C3)c3ncnc(N)c23)cc(O)c1F [compound 120, 5-[4-amino-1-(2,3-dihydro-1H-inden-2-yl)-1H-pyrazolo[3,4-d]pyrimidin-3-yl]-2-fluoro-3-hydroxybenzonitrile] | 77.84 % Inh | 91.68 % Inh | 93.67 % Inh | 1.41 % Inh |  |  |  |  |  | −99.28 ± 22.26 (n = 3) % Inh
2 | N#Cc1cc(-c2nn(C3CCc4ccccc4C3)c3ncnc(N)c23)cc(O)c1F (stereo not shown) [compound 130, 5-[4-amino-1-(1,2,3,4-tetrahydronaphthalen-2-yl)-1H-pyrazolo[3,4-d]pyrimidin-3-yl]-2-fluoro-3-hydroxybenzonitrile] | 53.08 % Inh | 90.11 % Inh | −1.03 % Inh | −0.64 % Inh | 0.269 nM | 104.5 ± 0.7 nM |  |  |  | 67.53 ± 15.54 (n = 3) % Inh
3 | Nc1ncnc2c1c(-c1cc(O)c(F)c(F)c1)nn2C1CCc2ncccc21 (stereo not shown) [compound 126, 5-(4-amino-1-{5H,6H,7H-cyclopenta[b]pyridin-5-yl}-1H-pyrazolo[3,4-d]pyrimidin-3-yl)-2,3-difluorophenol] | 4.71 % Inh | 2.3 % Inh | 8.16 % Inh | 8.18 % Inh |  |  |  |  |  | 12.35 ± 7.52 (n = 3) % Inh
4 | NC(=O)c1cc(-c2nn(C3Cc4ccccc4C3)c3ncnc(N)c23)cc(O)c1F [compound 132, 5-[4-amino-1-(2,3-dihydro-1H-inden-2-yl)-1H-pyrazolo[3,4-d]pyrimidin-3-yl]-2-fluoro-3-hydroxybenzamide] | 13.73 % Inh | 56.84 % Inh | 0.44 % Inh | 5.3 % Inh |  |  |  |  |  | 27.67 ± 13.46 (n = 3) % Inh
5 | Nc1ncnc2c1c(-c1cc(O)c(F)c(F)c1)cn2C1CCc2ccccc2C1 (stereo not shown) [compound 114, 5-[4-amino-7-(1,2,3,4-tetrahydronaphthalen-2-yl)-7H-pyrrolo[2,3-d]pyrimidin-5-yl]-2,3-difluorophenol] | 41.19 % Inh | 84.46 % Inh | 41.16 % Inh | 86.29 % Inh | 23.2 nM |  | 20.2 nM |  |  | 10.19 ± 13.54 (n = 3) % Inh
6 | Nc1cc(-c2nn(C3CCc4ccccc4C3)c3ncnc(N)c23)cc(F)c1F (stereo not shown) [compound 122, 3-(3-amino-4,5-difluorophenyl)-1-(1,2,3,4-tetrahydronaphthalen-2-yl)-1H-pyrazolo[3,4-d]pyrimidin-4-amine] | −3.68 % Inh | 25.32 % Inh | 12.72 % Inh | 53.15 % Inh |  |  |  |  |  | 2.58 ± 4.93 (n = 3) % Inh
7 | COc1ccc(-c2nn(C3CCc4ccccc4C3)c3ncnc(N)c23)cn1 (racemic) [compound 15, 3-(6-methoxypyridin-3-yl)-1-(1,2,3,4-tetrahydronaphthalen-2-yl)-1H-pyrazolo[3,4-d]pyrimidin-4-amine] |  |  |  |  | 67 nM |  | 565 nM |  |  | −0.75 ± 6.93 (n = 3) % Inh
8 | Nc1cc(-c2nn(C3Cc4ccccc4C3)c3ncnc(N)c23)cc(F)c1F [compound 109, 3-(3-amino-4,5-difluorophenyl)-1-(2,3-dihydro-1H-inden-2-yl)-1H-pyrazolo[3,4-d]pyrimidin-4-amine] | 2.46 % Inh | 26.17 % Inh | 14.85 % Inh | 63.35 % Inh |  |  |  |  |  | 10.19 ± 14.12 (n = 3) % Inh
9 | Nc1ncnc2c1c(-c1cc(O)c(F)c(Cl)c1)nn2C1Cc2ccccc2C1 [compound 117, 5-[4-amino-1-(2,3-dihydro-1H-inden-2-yl)-1H-pyrazolo[3,4-d]pyrimidin-3-yl]-3-chloro-2-fluorophenol] | 75.86 % Inh | 91.69 % Inh | 21.31 % Inh | 67.32 % Inh |  |  |  |  |  | 46.59 ± 11.89 (n = 3) % Inh
10 | COc1cc(-c2nn(C3Cc4ccccc4C3)c3ncnc(N)c23)cc(C#N)c1OC [Compound No. 105, 5-[4-amino-1-(2,3-dihydro-1H-inden-2-yl)-1H-pyrazolo[3,4-d]pyrimidin-3-yl]-2,3-dimethoxybenzonitrile] |  | 16.0 % Inh |  | 27.50 % Inh |  |  |  | 34.72 % Inh | 59.18 % Inh | 24.25 ± 33.84 (n = 5) % Inh

More lines, main results first:

Row | PI3Kδ @ 0.01 μM (% Inh) (PI3Kδ) | PI3Kδ @ 0.1 μM (% Inh) (PI3Kδ) | BTK @ 0.01 μM (% Inh) (BTK) | BTK @ 0.1 μM (% Inh) (BTK) | IC50 (PI3Kδ) | IC50 (CD69+B220+ cells; Splenocyte) | IC50 (BTK) | PI3Kδ @ 1 μM (% Inh) (PI3Kδ) | BTK @ 1 μM (% Inh) (BTK) | Compound | CD69 @ 100 nM (% Inh) (CD69+B220+ cells)
11 | 56.4 % Inh | 91.22 % Inh | 19.98 % Inh | 63.94 % Inh |  |  |  |  |  | Nc1ncnc2c1c(-c1cc(O)c(F)c(F)c1)nn2C1Cc2ccc(F)cc2C1 (stereo not shown) [compound 128, 5-[4-amino-1-(5-fluoro-2,3-dihydro-1H-inden-2-yl)-1H-pyrazolo[3,4-d]pyrimidin-3-yl]-2,3-difluorophenol] | 49.29 ± 5.74 (n = 3) % Inh
12 | 59.11 % Inh | 88.87 % Inh | 1.82 % Inh | −0.78 % Inh |  |  |  |  |  | Nc1ncnc2c1c(-c1cc(O)c(F)c(C(F)(F)F)c1)nn2C1CCc2ccccc2C1 (stereo not shown) [compound 123, 5-[4-amino-1-(1,2,3,4-tetrahydronaphthalen-2-yl)-1H-pyrazolo[3,4-d]pyrimidin-3-yl]-2-fluoro-3-(trifluoromethyl)phenol] | 29.22 ± 4.64 (n = 3) % Inh
13 |  | 34.17 % Inh |  | 26.99 % Inh | 1 nM |  | 190 nM | 76.31 % Inh | 72.83 % Inh | Nc1ncnc2c1c(-c1ccc(Br)c(O)c1)nn2C1CCc2ccccc21 (single isomer, unassigned) [36a, 5-[4-amino-1-(2,3-dihydro-1H-inden-1-yl)-1H-pyrazolo[3,4-d]pyrimidin-3-yl]-2-bromophenol] | 1.63 ± 7.31 (n = 3) % Inh
14 |  | 38.16 % Inh |  | 72.07 % Inh | 282 nM |  | 54.9 nM | 82.84 % Inh | 94.25 % Inh | Nc1cc(-c2nn(C3Cc4ccccc4C3)c3ncnc(N)c23)cnc1Cl [Compound No. 104, 5-[4-amino-1-(2,3-dihydro-1H-inden-2-yl)-1H-pyrazolo[3,4-d]pyrimidin-3-yl]-2-chloropyridin-3-amine] | 28.78 ± 19.62 (n = 5) % Inh
15 | 6.65 % Inh | 70.68 % Inh | 10.59 % Inh | 47.8 % Inh | 77.9 nM |  | 71.8 nM |  |  | NC(=O)c1cc(-c2cn(C3Cc4ccccc4C3)c3ncnc(N)c23)cc(O)c1F [compound 116, 5-[4-amino-7-(2,3-dihydro-1H-inden-2-yl)-7H-pyrrolo[2,3-d]pyrimidin-5-yl]-2-fluoro-3-hydroxybenzamide] | 20.48 ± 16.90 (n = 3) % Inh
16 | 70.35 % Inh | 91.77 % Inh | 21.71 % Inh | 70.28 % Inh |  |  |  |  |  | Nc1ncnc2c1c(-c1cc(O)c(F)c(F)c1)nn2C1CCc2ccccc2C1 (stereo not shown) [compound 119, 5-[4-amino-1-(1,2,3,4-tetrahydronaphthalen-2-yl)-1H-pyrazolo[3,4-d]pyrimidin-3-yl]-2,3-difluorophenol] | 47.52 ± 5.57 (n = 3) % Inh
